{"source": "patent US20180289666A1", "about": "“FLAVONOLIGNANS FOR TREATMENT OF AUTOIMMUNE INFLAMMATORY DISEASES” (Macau University of Science and Technology, priority 2017, published 2018)", "key": {"AIA rats": {"test_system": "AIA rats", "test": "Radiological and histopathological examination of hind paws / ankle joints of AIA rats", "type": "in vivo, Sprague-Dawley (SD) rats", "procedure": "Disease severity and progression were evaluated by measurements of both hind paw volumes with a plethysmometer chamber (Yiyan technology, Jinan, China) and body weight with a 0.1 g precision balance (Sartorius AG, Göttingen, Germany) every two or three days after arthritis induction. For evaluation the arthritic scoring, the lesions of four paws of each rat (i.e., the arthritic signs) were graded by two separate investigators with a semi-quantitative scale: 0 (normal), 4-8 (mild changes), 8-12 (moderate changes), and 12-16 (severe changes) (van Eden W., et. al., J. E. Coligan, Editor. 2001, John Wiley: New York. p. 1-11). Erythrocyte sedimentation rate (ESR) was determined with ICSH (International Council for Standardization in Hematology) selected method with little modifications at day 42. Briefly, 120 μl of blood sample was taken directly and put into 30 μl of 0.109 mol/L sodium citrate, mixed well, and then transferred into a 1.0 mm×100 mm capillary tube (West China Medical University, ChengDu, China). The tubes were held obliquely at an angle of […] and the erythrocyte sedimentation rate was recorded at 15 min. The cytokines levels including IL-1β, TNF-α, IL-17, IL-33, MMP-9, TIMP-1 and PGE2 in serum were measured using commercially available ELISA kits according to the manufacturers instructions. At the end of the experiments, rat knee images were measured (mean of three readings per knee, Meinaite digital calliper, ShangHai, China) using a IVIS Lumina XRMS Series (PerkinElmer, America) (Esser, R. E., et al., Arthritis Rheum, 1995, 38(1): p. 129-38).\nFor histopathological assessment, arthritic paws were collected on day 42 after X-ray check, fixed with 10% phosphate buffered saline (PBS) buffered formalin, and decalcified for 3 days in formic acid. Sections from paraffin-embedded tissue were stained with hematoxylin and eosin (H&E). The obtained plasma was stored in −70° C. for metabolomic studies. The relative organ weight ratios (such as liver index, spleen index, kidney index, lung index) were calculated by dividing the weight of each organ with the body weight."}, "[1]": {"test_system": "key enzymes involved in lipid metabolism in liver", "test": "Real-time PCR and Western blot of lipid metabolism enzymes in liver of AIA rats", "type": "in vivo, Sprague-Dawley (SD) rats", "procedure": "Total RNA was isolated from the frozen liver of the AIA model using TRIzol® Reagent (Life technology, USA). mRNA was purified by binding to poly(dT) magnetic beads using Dynabeads® mRNA DIRECT™ Kit (Life technology, Norway) and reverse transcribed using SuperScript® III reverse transcriptase (Invitrogen, California, USA) as described by the manufacturer. Quantitative real-time PCR was performed using SYBR Green (Sigma-Aldrich, Louis, USA) on the ViiA™ 7 Real-Time PCR System (Applied Biosystems, FosterCity, USA). Quantitative RT-PCR analysis was performed using SYBR Green reagents and ViiA™ 7 Real-Time PCR System. Gene expression levels were calculated from cycle threshold (Ct) values and normalized with control gene GAPDH.\nLiver tissue homogenates of AIA and MCD animal models were lysed in RIPA buffer (50 mM pH 7.4 Tris, 150 mM NaCl, 1% Triton X-100, 1% sodium deoxycholate, 0.1% SDS, sodium orthovanadate, sodium fluoride and EDTA) containing protease inhibitor cocktails (Roche Life Science, USA). Protein concentration was determined using the BCA protein assay kit (BIO-RAD, USA). Equal amounts of total protein were resolved using SDS-PAGE and transferred onto PVDF membranes (Millipore, Darmstadt, Germany). After incubation in a blocking solution containing with 5% (w/v) skim milk (Nestle Carnation, New Zealand) in TBST buffer (10 mM tris-buffered saline and 0.1% Tween20) for 1 h at room temperature and incubated with primary antibodies overnight at 4° C. The membranes were washed three times with 1×TBST solutions and incubated with the appropriate secondary antibodies at room temperature for 45 min, and subsequently visualized with an enhanced chemiluminescence detection kit (SuperSignal™ West Pico Chemiluminescent Substrate, Thermo Scientific, USA). β-actin was used as the loading control for the experimental data analysis."}}}
{"smiles": "COc1cc([C@H]2Oc3cc([C@H]4Oc5cc(O)cc(O)c5C(=O)[C@@H]4O)ccc3O[C@@H]2CO)ccc1O", "note": "(stereo in doubt) [Silybin]", "values": [{"measurement": "cartilage and joint destruction of the arthritic joints (radiographs)", "setting": "AIA rats; Silybin 100 mg/kg or 200 mg/kg, day 42", "result": "ameliorated"}, {"measurement": "infiltration of inflammatory cells, synovial hyperplasia", "setting": "AIA rats; ankle joint sections, H&E", "result": "diminished"}, {"measurement": "histological grade of representative ankle joint sections", "setting": "AIA rats; day 42, H&E, FIG. 2C (MTX; Silybin 200 mg/kg), vehicle-treated AIA grade 2/3", "result": 0}, {"measurement": "expression of aP2 in the liver", "setting": "[1]; AIA rats liver", "result": "reduced"}, {"measurement": "mRNA and/or protein expression of LPL, CYP7A1, and SREBP1 in liver", "setting": "[1]; AIA rats liver", "result": "greatly repressed"}, {"measurement": "overexpression of SREBP1", "setting": "[1]; AIA rats liver", "result": "not modulated"}, {"measurement": "increased mRNA levels of hepatic lipogenesis genes (SREBP1, LXR, FXR)", "setting": "[1]; AIA rats liver, real-time PCR", "result": "attenuated"}, {"measurement": "changes of key lipogenic enzyme in both gene and protein levels", "setting": "[1]; AIA rats liver, real-time PCR and Western blot", "result": "ameliorated changes"}, {"measurement": "mRNA level of LPL in liver", "setting": "[1]; AIA rats, real-time PCR, increase in the AIA model group", "result": "reversed"}]}
